Data published in patent publication US8324132B2, “Mixture and method for controlling undesired vegetation” (E. I. du Pont de Nemours and Company, priority 2010, dated 2012).

Key:
Assay type in all cases: in vivo
[1] = test system: knotroot foxtail (Setaria geniculata [Lam.] Beauv., SETGE); assay: Test D field plots: knotroot foxtail control
Description: (§1) In the following Tests C through E, Colby's equation was used to calculate the expected additive herbicidal effect of nicosulfuron and glyphosate alone and in combination. Colby's equation (S. R. Colby, “Calculating Synergistic and Antagonistic Responses of Herbicide Combinations,” Weeds, 15(1), pp 20-22 (1967)) calculates the expected additive effect of herbicidal mixtures, and for two active ingredients is of the form: Pa+b=Pa+Pb−(PaPb/100) • wherein Pa±b is the percentage effect of the mixture expected from additive contribution of the individual components, • Pa is the observed percentage effect of the first active ingredient at the same use rate as in the mixture, and • Pb is the observed percentage effect of the second active ingredient at the same use rate as in the mixture.
(§2) For mixtures comprising nicosulfuron, metsulfuron-methyl and glyphosate the expected herbicidal effect was calculated based on the combination of nicosulfuron and metsulfuron-methyl providing observed herbicidal effect Pa and glyphosate providing observed herbicidal effect Pb in the Colby Equation. Plant responses to components Pa and Pb range from zero to 100% where zero is no observed response and 100% is complete response (i.e. plant death). Mixtures of herbicides were tested for their ability to express synergism (enhanced weed control) or antagonism (improved tolerance) at several locations in the United States. In the following Tests glyphosate was provided by the potassium salt of glyphosate. Crop phytotoxic response (% phyto) and weed control efficacy (% control) were visually evaluated using a 0-100 scale where zero is no visible response and 100 is plant death. In the following Tables “DAA” means days after application and “g a.i./ha” means grams active ingredient per hectare.
(§3) Herbicides and herbicide mixtures were applied to field plots of bermudagrass (Cynodon dactylon, CYNDA) near Lena, Miss. and Paris, Ark. to control knotroot foxtail (Setaria geniculata [Lam.] Beauv., SETGE) approximately one week after the bermudagrass had been cut and harvested. All herbicides and herbicide mixtures were formulated in water containing 0.25% (vol/vol) non-ionic surfactant (“NIS” provided by INDUCE®) and applied to bermudagrass stubble as a spray mixture using a backpack sprayer pressurized with CO2.

[2] = test system: dormant bermudagrass (Cynodon dactylon, CYNDA); assay: Test E field plots: dormant bermudagrass phytotoxic response
Description: as §1, §2
(§4) Herbicides and herbicide mixtures were applied to field plots of dormant bermudagrass (Cynodon dactylon, CYNDA) near Eatonton, Ga. on Mar. 20, 2010 and Decatur, Tex. on Mar. 30, 2010 to control rescuegrass (Bromus catharticus Vahl., BROCA). All herbicides and herbicide mixtures were formulated in water containing 1.0% (vol/vol) crop oil concentrate and applied as a spray mixture to bermudagrass using a backpack sprayer pressurized with CO2.

[3] = test system: rescuegrass (Bromus catharticus Vahl., BROCA); assay: Test E field plots: rescuegrass control
Description: as §1, §2, §4

[4] = test system: field sandbur (Cenchrus incertus M. A. Curtis, CCHIN); assay: Test C field plots: field sandbur control
Description: as §1, §2
(§5) Herbicides and herbicide mixtures were applied to field plots of bermudagrass (Cynodon dactylon, CYNDA) near De Leon, Tex., Yukon, Okla. and Burlington, Okla. to control field sandbur (Cenchrus incertus M. A. Curtis, CCHIN) approximately one week after the bermudagrass had been cut and harvested. All herbicides and herbicide mixtures were formulated in water containing 0.25% (vol/vol) non-ionic surfactant (“NIS” provided by INDUCE®) and applied as a spray mixture to bermudagrass stubble using a backpack sprayer pressurized with CO2.

[5] = test system: bermudagrass (Cynodon dactylon, CYNDA); assay: Test D field plots: bermudagrass phytotoxic response
Description: as §1, §2, §3

[6] = test system: bermudagrass (Cynodon dactylon, CYNDA); assay: Test C field plots: bermudagrass phytotoxic response
Description: as §1, §2, §5

[7] = glyphosate 96 g a.i./ha, 30 DAA, Paris, AR
[8] = glyphosate 96 g a.i./ha, 60 DAA, Paris, AR
[9] = glyphosate 192 g a.i./ha, 15 DAA, Lena, MS
[10] = glyphosate 192 g a.i./ha, 30 DAA, Paris, AR
[11] = glyphosate 192 g a.i./ha, 60 DAA, Paris, AR
[12] = glyphosate 289 g a.i./ha, 15 DAA, Lena, MS
[13] = glyphosate 289 g a.i./ha, 30 DAA, Paris, AR
[14] = glyphosate 289 g a.i./ha, 60 DAA, Paris, AR
[15] = glyphosate 144 g a.i./ha, 30 DAA, Decatur, TX
[16] = glyphosate 144 g a.i./ha, 45 DAA, Eatonton, GA
[17] = glyphosate 144 g a.i./ha, 60 DAA, Decatur, TX
[18] = glyphosate 289 g a.i./ha, 30 DAA, Decatur, TX
[19] = glyphosate 289 g a.i./ha, 45 DAA, Eatonton, GA
[20] = glyphosate 289 g a.i./ha, 60 DAA, Decatur, TX
[21] = glyphosate 96 g a.i./ha, 15 DAA, De Leon, TX
[22] = glyphosate 96 g a.i./ha, 30 DAA, Yukon, OK
[23] = glyphosate 96 g a.i./ha, 90 DAA, Yukon, OK and Burlington, OK
[24] = glyphosate 192 g a.i./ha, 15 DAA, De Leon, TX
[25] = glyphosate 192 g a.i./ha, 30 DAA, Yukon, OK
[26] = glyphosate 192 g a.i./ha, 90 DAA, Yukon, OK and Burlington, OK
[27] = glyphosate 289 g a.i./ha, 15 DAA, De Leon, TX
[28] = glyphosate 289 g a.i./ha, 30 DAA, Yukon, OK
[29] = glyphosate 289 g a.i./ha, 90 DAA, Yukon, OK and Burlington, OK
[30] = nicosulfuron 39 g a.i./ha, 30 DAA, Paris, AR
[31] = nicosulfuron 39 g a.i./ha, 60 DAA, Paris, AR
[32] = nicosulfuron 39 g a.i./ha, 30 DAA, Decatur, TX
[33] = nicosulfuron 39 g a.i./ha, 45 DAA, Eatonton, GA
[34] = nicosulfuron 39 g a.i./ha, 60 DAA, Decatur, TX
[35] = nicosulfuron 39 g a.i./ha, 15 DAA, De Leon, TX
[36] = nicosulfuron 39 g a.i./ha, 30 DAA, Yukon, OK
[37] = nicosulfuron 39 g a.i./ha, 90 DAA, Yukon, OK and Burlington, OK

## O=C(O)CNCP(=O)(O)O [Glyphosate, glyphosate]
[1]; [7]
  SETGE (% control) Observed: 7%
[1]; [8]
  SETGE (% control) Observed: 3%
[1]; [9]
  SETGE (% control) Observed: 79%
[1]; [10]
  SETGE (% control) Observed: 28%
[1]; [11]
  SETGE (% control) Observed: 18%
[1]; [12]
  SETGE (% control) Observed: 84%
[1]; [13]
  SETGE (% control) Observed: 40%
[1]; [14]
  SETGE (% control) Observed: 20%
[2]; [15]
  CYNDA (% phyto) Observed: 0%
[2]; [16]
  CYNDA (% phyto) Observed: 0%
[2]; [17]
  CYNDA (% phyto) Observed: 0%
[2]; [18]
  CYNDA (% phyto) Observed: 0%
[2]; [19]
  CYNDA (% phyto) Observed: 0%
[2]; [20]
  CYNDA (% phyto) Observed: 0%
[3]; glyphosate 144 g a.i./ha, 15 DAA, Eatonton, GA
  BROCA (% control) Observed: 0%
[3]; [15]
  BROCA (% control) Observed: 0%
[3]; [16]
  BROCA (% control) Observed: 88%
[3]; [17]
  BROCA (% control) Observed: 0%
[3]; glyphosate 289 g a.i./ha, 15 DAA, Eatonton, GA
  BROCA (% control) Observed: 87%
[3]; [18]
  BROCA (% control) Observed: 0%
[3]; [19]
  BROCA (% control) Observed: 95%
[3]; [20]
  BROCA (% control) Observed: 0%
[4]; [21]
  CCHIN (% control) Observed: 60%
[4]; [22]
  CCHIN (% control) Observed: 2%
[4]; [23]
  CCHIN (% control) Observed: 55%
[4]; [24]
  CCHIN (% control) Observed: 74%
[4]; [25]
  CCHIN (% control) Observed: 18%
[4]; [26]
  CCHIN (% control) Observed: 63%
[4]; [27]
  CCHIN (% control) Observed: 89%
[4]; [28]
  CCHIN (% control) Observed: 35%
[4]; [29]
  CCHIN (% control) Observed: 75%
[5]; [7]
  CYNDA (% phyto) Observed: 0%
[5]; [8]
  CYNDA (% phyto) Observed: 0%
[5]; [9]
  CYNDA (% phyto) Observed: 18%
[5]; [10]
  CYNDA (% phyto) Observed: 2%
[5]; [11]
  CYNDA (% phyto) Observed: 0%
[5]; [12]
  CYNDA (% phyto) Observed: 20%
[5]; [13]
  CYNDA (% phyto) Observed: 11%
[5]; [14]
  CYNDA (% phyto) Observed: 0%
[6]; [21]
  CYNDA (% phyto) Observed: 0%
[6]; [22]
  CYNDA (% phyto) Observed: 0%
[6]; [23]
  CYNDA (% phyto) Observed: 0%
[6]; [24]
  CYNDA (% phyto) Observed: 5%
[6]; [25]
  CYNDA (% phyto) Observed: 0%
[6]; [26]
  CYNDA (% phyto) Observed: 0%
[6]; [27]
  CYNDA (% phyto) Observed: 13%
[6]; [28]
  CYNDA (% phyto) Observed: 0%
[6]; [29]
  CYNDA (% phyto) Observed: 0%

## COc1cc(OC)nc(NC(=O)NS(=O)(=O)c2ncccc2C(=O)N(C)C)n1 [Nicosulfuron, nicosulfuron]
[1]; [30]
  SETGE (% control) Observed: 28%
[1]; [31]
  SETGE (% control) Observed: 10%
[2]; [32]
  CYNDA (% phyto) Observed: 0%
[2]; [33]
  CYNDA (% phyto) Observed: 0%
[2]; [34]
  CYNDA (% phyto) Observed: 0%
[3]; nicosulfuron 39 g a.i./ha, 15 DAA, Eatonton, GA
  BROCA (% control) Observed: 10%
[3]; [32]
  BROCA (% control) Observed: 63%
[3]; [33]
  BROCA (% control) Observed: 79%
[3]; [34]
  BROCA (% control) Observed: 53%
[4]; [35]
  CCHIN (% control) Observed: 65%
[4]; [36]
  CCHIN (% control) Observed: 78%
[4]; [37]
  CCHIN (% control) Observed: 88%
[5]; [30]
  CYNDA (% phyto) Observed: 3%
[5]; [31]
  CYNDA (% phyto) Observed: 0%
[6]; [35]
  CYNDA (% phyto) Observed: 5%
[6]; [36]
  CYNDA (% phyto) Observed: 10%
[6]; [37]
  CYNDA (% phyto) Observed: 0%
